# In patent publication US9394343B2, “Appetite stimulating protein” (The Regents of the University of California, priority 2011, dated 2016):
# Bridge positions count the residues as written; N and C are the ends. Ends that are not written are not given here. Peptide text beside a SMILES is read from it.
# Legend:
# [1] = biological target: T1, hMC3R (Homo sapiens, UniProt P41968); conditions: cited from earlier work
# T1 construct: expressed in transfected cells; host or cells: HEK-293
# [2] = biological target: T2, hMC4R (Homo sapiens, UniProt P32245); conditions: cited from earlier work
# T2 construct: expressed in transfected cells; host or cells: HEK-293
# T2 sequence (P32245 whole entry): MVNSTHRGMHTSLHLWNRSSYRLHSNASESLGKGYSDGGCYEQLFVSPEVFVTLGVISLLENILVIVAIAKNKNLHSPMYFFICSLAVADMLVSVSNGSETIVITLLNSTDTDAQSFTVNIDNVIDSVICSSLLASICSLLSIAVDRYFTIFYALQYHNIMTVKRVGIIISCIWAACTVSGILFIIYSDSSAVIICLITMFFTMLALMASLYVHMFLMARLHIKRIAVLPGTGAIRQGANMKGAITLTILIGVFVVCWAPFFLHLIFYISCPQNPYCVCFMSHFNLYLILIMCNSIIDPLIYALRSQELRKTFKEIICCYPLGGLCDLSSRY
# [3] = cooperative folding, Jackson et al., 2002; cited from earlier work
# [4] = cited from earlier work; for Feeding response compared with AgRP: literature
# [5] = test system: male Long-Evans rats; test: Feeding and body mass after single third cerebral ventricle (ICV) injection; assay type: in vivo, rat; conditions: single 1.0 nmol ICV dose; for Initial (24 hour) feeding response, in words: first 24 hours
# [6] = biological target: T1, hMC3R; conditions: cAMP, NDP-MSH stimulated; data adapted from the literature (footnote c); read-out: EC50, MC3R; cited from earlier work
# T1 sequence (P41968 whole entry): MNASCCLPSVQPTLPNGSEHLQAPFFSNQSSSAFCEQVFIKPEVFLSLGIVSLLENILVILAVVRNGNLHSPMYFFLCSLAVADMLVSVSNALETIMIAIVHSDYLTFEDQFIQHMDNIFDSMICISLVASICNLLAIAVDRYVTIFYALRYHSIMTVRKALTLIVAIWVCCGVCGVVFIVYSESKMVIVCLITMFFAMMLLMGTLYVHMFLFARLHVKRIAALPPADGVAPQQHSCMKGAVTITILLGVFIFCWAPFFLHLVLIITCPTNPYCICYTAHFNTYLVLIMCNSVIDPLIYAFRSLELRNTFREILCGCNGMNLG
molecule,measurement,setting,value
"CC(=O)N[C@H]1CSSC[C@@H]2NC(=O)[C@@H]3CSSC[C@@H](C(=O)N[C@@H](CCCNC(=N)N)C(N)=O)NC(=O)[C@H](Cc4ccc(O)cc4)NC(=O)[C@@H]4CSSC[C@H](NC(=O)[C@H](Cc5ccc(O)cc5)NC(=O)[C@H](CSSC[C@H](NC(=O)[C@H](CO)NC(=O)[C@H](CCC(=O)O)NC(=O)[C@H](Cc5c[nH]cn5)NC(=O)[C@H](CC(C)C)NC(=O)[C@H](CCCNC(=N)N)NC(=O)[C@H](C(C)C)NC1=O)C(=O)N[C@@H](CC(C)C)C(=O)NCC(=O)N[C@@H](CCC(N)=O)C(=O)N[C@@H](CCC(N)=O)C(=O)N[C@@H](C(C)C)C(=O)N1CCC[C@H]1C(=O)N3)NC(=O)[C@H]([C@@H](C)O)NC(=O)[C@H](C)NC(=O)[C@H](C)NC(=O)[C@@H]1CCCN1C(=O)[C@H](CC(=O)O)NC2=O)C(=O)N[C@@H](CCCNC(=N)N)C(=O)N[C@@H](Cc1ccccc1)C(=O)N[C@@H](Cc1ccccc1)C(=O)N[C@@H](CC(N)=O)C(=O)N[C@@H](C)C(=O)N[C@@H](Cc1ccccc1)C(=O)N4 [AgRP(87-120)] (Ac-CVRLHESCLGQQVPCCDPAATCYCRFFNAFCYCR-NH2; disulfide 1-16, 8-22, 15-33, 24-31 (inferred); C-terminus assumed)",Dissociation constant at Mc3R compared with mature AgRP(83-132),[1]; previous study,equivalent to mature AgRP(83-132)
same,Dissociation constant at Mc4R compared with mature AgRP(83-132),[2]; previous study,equivalent to mature AgRP(83-132)
same,Folding stability,[3],indistinguishable from AgRP(83-132)
MTII,Feeding after injection following AgRP administration,[4]; injected after AgRP,transiently reduces feeding
SHU9119,Feeding response compared with AgRP,[4],long-term response similar to AgRP
"mature wild type human Agouti-Related Protein, SSRR-CVRLHESCLGQQVPCCDPCATCYCRFFNAFCYC-RKLGTAMNPCSRT (SSRRCVRLHESCLGQQVPCCDPCATCYCRFFNAFCYCRKLGTAMNPCSRT; not fully specified (bridges); ends and bridges not checked; listed as Homo sapiens) [AgRP(83-132)]",Feeding increase over control at three or four days after injection,[5],about 30%
same,"Initial (24 hour) feeding response, in words",[5],the most potent
same,"Initial (24 hour) feeding response, in words",[5]; listed as AgRP,greatly stimulate feeding
same,Feeding increase over control after one day,[5]; first 24 hr,~80%
same,Ki,"[2]; displacement of 125I-NDP-MSH, data adapted from the literature (footnotes a, d), read-out: Ki, MC4R",11 ± 0.7 nM
neuropeptide Y [neuropeptide Y (NPY)],Feeding response compared with AgRP,[4],feeding returns to baseline after 24 hours
truncated AgRP lacking the N-terminal SSRR segment: CVRLHESCLGQQVPCCDPCATCYCRFFNAFCYC-RKLGTAMNPCSRT [AgRP(87-132)],Ki,"[1]; displacement of 125I-NDP-MSH, data adapted from the literature (footnote a), read-out: Ki, MC3R",5.2 ± 0.7 nM
same,EC50,[6],8.9 ± 0.2 nM
